Source: ChEMBL document CHEMBL1128000, “Synthesis and antiviral activity of a novel class of HIV-1 protease inhibitors containing a heterocyclic P1-P2 amide bond isostere” (Bioorg Med Chem Lett, 1994)

Experiments:
[1] = target: Human immunodeficiency virus type 1 protease (Human immunodeficiency virus 1, UniProt Q72874); test: Inhibitory activity against HIV-1 protease; conditions: read-out: Ki app
MOLT-4 = test: Compound was tested for in vitro inhibitory activity against HIV replication in MOLT-4 cells; assay type: functional, cell-based; conditions: Homo sapiens

Structure (SMILES)	Ki [1] [nM]	IC50 (MOLT-4) [nM]
CC(=O)N[C@@H](C(=O)N[C@@H](Cc1ccccc1)[C@@H](O)C[C@@H](Cc1ccccc1)c1nc(C(C)C)c[nH]1)C(C)C	150	
COC(=O)N[C@H](C(=O)N[C@@H](Cc1ccccc1)[C@@H](O)C[C@@H](Cc1ccccc1)c1nc(C(C)C)c[nH]1)C(C)C	2.1	50
CCCc1cnc([C@H](Cc2ccccc2)C[C@H](O)[C@H](Cc2ccccc2)NC(=O)OC(C)(C)C)s1 (stereo in doubt; form 2)	410	
COC(=O)c1cnc([C@H](Cc2ccccc2)C[C@H](O)[C@H](Cc2ccccc2)NC(=O)OC(C)(C)C)[nH]1	1800	
CCC(=O)c1cnc([C@H](Cc2ccccc2)C[C@H](O)[C@H](Cc2ccccc2)NC(=O)OC(C)(C)C)s1	3700	
CCCc1cnc([C@H](Cc2ccccc2)C[C@H](O)[C@H](Cc2ccccc2)NC(=O)OC(C)(C)C)s1 (stereo in doubt; form 1)	700	
CC(C)OC(=O)N[C@H](C(=O)N[C@@H](Cc1ccccc1)[C@@H](O)C[C@@H](Cc1ccccc1)c1ncc(C(C)C)[nH]1)C(C)C	7.9	134
CCC(CC)C(=O)c1cnc([C@H](Cc2ccccc2)C[C@H](O)[C@H](Cc2ccccc2)NC(=O)OC(C)(C)C)[nH]1	46	850
CC(C)(C)OC(=O)N[C@@H](Cc1ccccc1)[C@@H](O)C[C@@H](Cc1ccccc1)c1nc[nH]n1	5800	
CC(C)c1c[nH]c([C@H](Cc2ccccc2)C[C@H](O)[C@H](Cc2ccccc2)NC(=O)[C@@H](NC=O)C(C)C)n1	4.6	
CCCc1cnc([C@H](Cc2ccccc2)C[C@H](O)[C@H](Cc2ccccc2)NC(=O)OC(C)(C)C)s1 (stereo in doubt; form 3)	4600	
CCCCc1cnc([C@H](Cc2ccccc2)C[C@H](O)[C@H](Cc2ccccc2)NC(=O)OC(C)(C)C)s1	26000	
CCC(C)C(=O)c1c[nH]c([C@H](Cc2ccccc2)C[C@H](O)[C@H](Cc2ccccc2)NC(=O)OC(C)(C)C)n1 (some centres not stated)	53	950
CC(C)c1c[nH]c([C@H](Cc2ccccc2)C[C@H](O)[C@H](Cc2ccccc2)NC(=O)[C@@H](NC(=O)OCc2ccccc2)[C@H](C)O)n1	1.4	11
CC(C)(C)OC(=O)N[C@@H](Cc1ccccc1)[C@@H](O)C[C@@H](Cc1ccccc1)c1nccs1	3000	
CC(C)(C)OC(=O)N[C@@H](Cc1ccccc1)[C@@H](O)C[C@@H](Cc1ccccc1)c1nc(C(=O)C2CCCC2)c[nH]1	150	
CNC(=O)c1c[nH]c([C@H](Cc2ccccc2)C[C@H](O)[C@H](Cc2ccccc2)NC(=O)OC(C)(C)C)n1	3700	
CCc1cnc([C@H](Cc2ccccc2)C[C@H](O)[C@H](Cc2ccccc2)NC(=O)OC(C)(C)C)s1	2000	
CC(C)c1cnc([C@H](Cc2ccccc2)C[C@H](O)[C@H](Cc2ccccc2)NC(=O)[C@@H](NC(=O)OC(C)(C)C)C(C)C)[nH]1	300	
CCOC(=O)N[C@H](C(=O)N[C@@H](Cc1ccccc1)[C@@H](O)C[C@@H](Cc1ccccc1)c1nc(C(C)C)c[nH]1)C(C)C	2.8	77
CC(=O)N[C@H](C(=O)N[C@@H](Cc1ccccc1)[C@@H](O)C[C@@H](Cc1ccccc1)c1ncc(C(C)C)[nH]1)C(C)C	1	40
CCC(O)c1cnc([C@H](Cc2ccccc2)C[C@H](O)[C@H](Cc2ccccc2)NC(=O)OC(C)(C)C)s1 (some centres not stated)	720	
CC(C)c1cnc([C@H](Cc2ccccc2)C[C@H](O)[C@H](Cc2ccccc2)NC(=O)[C@@H](NC(=O)OCc2ccccc2)C(C)C)[nH]1	0.6	100
CC(C)(C)OC(=O)N[C@@H](Cc1ccccc1)[C@@H](O)C[C@@H](Cc1ccccc1)c1ncc(C(=O)c2ccccc2)[nH]1	7800	
